Measured values from patent US4568490A, “Aminopropylaminobleomycin derivatives and process for preparation thereof” (Zaidan Hojin Biseibutsu Kagaku Kenkyu Kai, priority 1981, dated 1986).

Experiments:
ICR strain mice = assay: Pulmonary toxicity (pulmonary fibrosis) in mice, intraperitoneal injection; assay type: in vivo; details: 5 mg/kg i.p. once a day for 10 days; for Grade of pulmonary fibrosis, % / Incidence of pulmonary fibrosis, % / Incidence: number of mice suffering from pulmonary fibrosis / Grade: total score of pulmonary fibrosis/total number of test animal: autopsy after 5 weeks; for Incidence: number of mice suffering from pulmonary fibrosis: affected/total mice; for Grade: total score of pulmonary fibrosis/total number of test animal: score 0-6 points; for Grade of pulmonary fibrosis, Ratio / Incidence of pulmonary fibrosis, Ratio: reference of the ratio not stated
Outline: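 Male ICR mice, 15 weeks old, 9 per group, received 5 mg/kg intraperitoneally once daily for 10 days. They were autopsied after 5 weeks' observation for pulmonary fibrosis incidence and grade: 1, alveolar exudate/septal fibrosis-like change; 2, fibrosis in several areas; 4, scattered fibrosis; 6, fibrosis over >2/3 of area.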

Hela S3 cells [1] = assay: Growth inhibitory activity against Hela S3 cells; assay type: cell-based; details: Cu-free form; Hela S3, 3 days incubation with compound
Protocol: The percentage growth inhibition was calculated using the equation: […] wherein A is the ultimate number of cells on the third day from the addition of a test sample, B is the ultimate number of cells in the control (without the addition of test sample), and C is the number of cells on the day of addition of the test sample.

Bacillus subtilis = assay: Antimicrobial activity, agar plate-cylinder method; assay type: cell-based; details: Cu-free form; bleomycin A2 (Cu-free form) standard assumed 1,000 mcg/mg
Protocol: (1) Antimicrobial activity against Mycobacterium smegmatis ATCC 697 and Bacillus subtilis.
(§1) The activity was assayed against the above test microorganisms by the method of agar plate-cylinder, assuming the potency of bleomycin A2 (Cu-free form), used as standard, to be 1,000 mcg/mg.

[2] = test system: Mycobacterium smegmatis ATCC 607; assay: Antimicrobial activity, agar plate-cylinder method; assay type: cell-based; details: Cu-free form; bleomycin A2 (Cu-free form) standard assumed 1,000 mcg/mg
Protocol: as §1

[3] = test system: CDF1 /SLC strain male mice; assay: Acute toxicity, LD50 on 10 consecutive days; assay type: in vivo; details: subcutaneous, Behrens-Karber method
Protocol: LD50 was assayed by administering several representative compounds of this invention for 10 consecutive days.
CDF1 /SLC strain male mice (each 6 weeks old, 7 members per group) were subcutaneously administered with various compounds of this invention, the dose being different with each compound. LD50 (daily dose) was estimated from the mortality during the administration period by the Behrens-Karber method.

[4] = test system: Lymphocytic leukemia P-388; assay: In vivo antitumor activity, murine lymphocytic leukemia P-388; details: BDF1-SLC mice, i.p. transplant, once daily for 9 days, 30 days observation; T/C more than 130 effective
Protocol: The following data with respect to the testing of a group of the presently claimed substances in vivo according to a standard test method involving murine lymphocytic leukemia P-388 is presented to lend further assurance as to the utility of the compounds as inhibitors of mammalian tumors.
Lymphocytic leukemia P-388 cells (1×10^5 /0.2 ml) were transplanted intraperitoneally into male BDF1 -SLC mice (5 mice/group). Each of the compounds of this invention was diluted with physiological saline to various concentrations. Each dilution was administered at a dose of 0.1 ml/10 g of body weight once daily for 9 days, starting on the day after the day of the transplantation. The mice of the control group were administered physiological saline.
The average number of days that the group receiving the compound of this invention survived was calculated. The figure obtained was divided by the average number of survival days for the control group, and was multiplied by 100 (T/C (%)).
T/C value more than 130 was considered to be effective.

Hela S3 cells [5] = details: background statement; cited from earlier work

| SMILES | Grade of pulmonary fibrosis, % (ICR strain mice) [%] | Incidence of pulmonary fibrosis, % (ICR strain mice) [%] | Incidence: number of mice suffering from pulmonary fibrosis (ICR strain mice) | Grade: total score of pulmonary fibrosis/total number of test animal (ICR strain mice) | Grade of pulmonary fibrosis, Ratio (ICR strain mice) | Incidence of pulmonary fibrosis, Ratio (ICR strain mice) | 50% growth inhibition concentration (ID50) of Cu--free compound against cultured Hela cell (Hela S3 cells [1]) [µg/mL] | Antimicrobial potency of Cu--free compound, against Bacillus subtilis (Bacillus subtilis) [mcg potency per mg] | Antimicrobial potency of Cu--free compound, against Mycobacterium smegmatis ATCC 607 [2] [mcg potency per mg] | LD50 (daily dose) [3] [mg/kg/day] | Max. T/C on Mouse Lymphocytic Leukemia P 388 [4] [%] | Growth inhibition of Hela Cell (in words) (Hela S3 cells [5]) |
| --- | --- | --- | --- | --- | --- | --- | --- | --- | --- | --- | --- | --- |
| Cc1c(N)nc(C(CC(N)=O)NCC(N)C(N)=O)nc1C(=O)NC(C(=O)NC(C)C(O)C(C)C(=O)NC(C(=O)NCCc1nc(-c2nc(C(=O)NCCCN(C)CCCN(Cc3ccc(OCc4ccccc4)c(OCc4ccccc4)c3)Cc3ccc(OCc4ccccc4)c(OCc4ccccc4)c3)cs2)cs1)C(C)O)C(OC1OC(CO)C(O)C(O)C1OC1OC(CO)C(O)C(OC(N)=O)C1O)c1cnc[nH]1 (centres unmarked) [Compound No. 34, 3-{N--Methyl-N--[3'-(bis(m,p-dibenzyloxybenzyl)amino)propyl]amino}propylaminoBLM] | 0 | 0 | 0/9 | 0/27 | 0.00 | 0.00 | 0.38 | 49 | 164 | 60.0 | 205 |  |
| Cc1c(N)nc(C(CC(N)=O)NCC(N)C(N)=O)nc1C(=O)NC(C(=O)NC(C)C(O)C(C)C(=O)NC(C(=O)NCCc1nc(-c2nc(C(=O)NCCCN(C)CCCN)cs2)cs1)C(C)O)C(OC1OC(CO)C(O)C(O)C1OC1OC(CO)C(O)C(OC(N)=O)C1O)c1cnc[nH]1 (centres unmarked) [APMP, 3-[N-(3-aminopropyl)-N-methylamino]propylaminobleomycin, reference compound] | 0 | 100 | 9/9 | 48/27 | 2.15 | 1.6 |  |  |  |  |  | strongly inhibits |
| Cc1c(N)nc(C(CC(N)=O)NCC(N)C(N)=O)nc1C(=O)NC(C(=O)NC(C)C(O)C(C)C(=O)NC(C(=O)NCCc1nc(-c2nc(C(=O)NCCCN3CCN(CCCN(Cc4ccccc4)Cc4ccccc4)CC3)cs2)cs1)C(C)O)C(OC1OC(CO)C(O)C(O)C1OC1OC(CO)C(O)C(OC(N)=O)C1O)c1cnc[nH]1 (centres unmarked) [Compound No. 43] | 0 | 0 | 0/9 | 0/27 | 0.00 | 0.00 | 0.50 | 1230 | 14420 | 12.5 | 182 |  |
